Values joined by “and” are separate entries in the source; they are usually repeats but may differ in a detail not shown here. Equal values may be shown once.
What was measured:
[1] = target: T1, fibronectin receptor (Fn-R) (Homo sapiens, UniProt P05556+P08648); assay: Competitive ELISA for fibronectin receptor binding; conditions: purified receptor from human placenta, read-out: FnR Binding (IC50)
T1 construct: purified from (100 mM) octyl glucoside-extracted human placenta; from tissue; host or cells: human placenta
T1 sequence (P08648 42-894 limits assumed): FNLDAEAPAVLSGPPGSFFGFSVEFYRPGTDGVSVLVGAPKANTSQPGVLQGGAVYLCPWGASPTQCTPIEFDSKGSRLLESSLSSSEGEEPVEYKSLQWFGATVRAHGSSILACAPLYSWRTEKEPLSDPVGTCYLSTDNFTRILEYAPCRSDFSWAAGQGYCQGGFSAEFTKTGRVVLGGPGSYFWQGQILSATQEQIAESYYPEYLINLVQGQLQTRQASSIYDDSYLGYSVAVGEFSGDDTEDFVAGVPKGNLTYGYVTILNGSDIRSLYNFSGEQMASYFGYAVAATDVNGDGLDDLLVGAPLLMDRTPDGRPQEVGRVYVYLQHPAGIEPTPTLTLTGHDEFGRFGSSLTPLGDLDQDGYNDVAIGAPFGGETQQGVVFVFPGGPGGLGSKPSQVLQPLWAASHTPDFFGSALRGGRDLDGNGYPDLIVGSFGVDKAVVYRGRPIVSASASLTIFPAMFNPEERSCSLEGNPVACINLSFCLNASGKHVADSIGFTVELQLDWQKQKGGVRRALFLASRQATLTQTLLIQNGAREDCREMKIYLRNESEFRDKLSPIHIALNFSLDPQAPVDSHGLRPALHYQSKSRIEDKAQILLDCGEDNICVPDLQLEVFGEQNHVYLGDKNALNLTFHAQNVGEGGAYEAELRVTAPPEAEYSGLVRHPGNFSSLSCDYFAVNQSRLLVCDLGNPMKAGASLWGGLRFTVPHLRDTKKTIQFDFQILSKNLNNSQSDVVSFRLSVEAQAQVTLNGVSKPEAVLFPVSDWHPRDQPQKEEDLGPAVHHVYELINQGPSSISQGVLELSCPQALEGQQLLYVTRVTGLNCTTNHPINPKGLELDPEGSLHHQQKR
T1 sequence (P08648 895-1049 partner limits assumed): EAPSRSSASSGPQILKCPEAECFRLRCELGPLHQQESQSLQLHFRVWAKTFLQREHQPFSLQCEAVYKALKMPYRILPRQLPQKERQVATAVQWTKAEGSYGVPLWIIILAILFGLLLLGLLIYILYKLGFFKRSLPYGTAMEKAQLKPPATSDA
T1 sequence (P05556 21-798): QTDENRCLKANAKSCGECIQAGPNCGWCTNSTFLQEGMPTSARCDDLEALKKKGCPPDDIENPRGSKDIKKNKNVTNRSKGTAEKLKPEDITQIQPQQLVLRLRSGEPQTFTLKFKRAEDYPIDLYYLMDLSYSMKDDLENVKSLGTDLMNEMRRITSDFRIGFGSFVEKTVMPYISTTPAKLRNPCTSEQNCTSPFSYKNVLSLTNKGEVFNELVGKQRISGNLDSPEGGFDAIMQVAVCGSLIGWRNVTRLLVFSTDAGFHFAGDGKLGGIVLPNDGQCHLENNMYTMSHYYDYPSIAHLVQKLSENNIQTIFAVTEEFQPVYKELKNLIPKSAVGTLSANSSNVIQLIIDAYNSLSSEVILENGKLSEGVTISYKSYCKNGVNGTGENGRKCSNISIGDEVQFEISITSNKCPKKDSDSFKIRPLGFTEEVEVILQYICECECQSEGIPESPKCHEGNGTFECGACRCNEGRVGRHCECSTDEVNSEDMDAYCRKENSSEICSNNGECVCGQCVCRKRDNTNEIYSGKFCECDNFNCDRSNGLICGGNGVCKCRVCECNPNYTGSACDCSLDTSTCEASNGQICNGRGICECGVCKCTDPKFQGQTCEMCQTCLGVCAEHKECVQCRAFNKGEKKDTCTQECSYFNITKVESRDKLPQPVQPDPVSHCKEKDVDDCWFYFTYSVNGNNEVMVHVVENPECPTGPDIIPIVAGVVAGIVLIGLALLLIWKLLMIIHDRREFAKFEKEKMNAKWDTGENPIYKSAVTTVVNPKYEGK
Experimental: Peptide binding to purified Fn-R was determined by using a competitive enzyme-linked immunosorbent assay (ELISA) in which fibronectin is immobilized and the binding of solubilized Fn-R is detected with labeled anti-FnR antibodies in the presence of various concentrations of peptide analogue.
Microtiter plates were coated with 110 μl of human fibronectin (at 2 μg/ml) in TBS. The plates were washed three times with TBS that contained 0.05% Tween 20. If necessary, peptides were added after this washing in 10 microliter aliquots. The fibronectin receptor was then added in 2-fold serial dilutions with TBS containing 20 mM octyl glucoside and 2 mM MnCl2. The plates were incubated for three hours at room temperature, washed with 200 μl of the above TBS-Tween buffer. 100 μl of affinity-purified rabbit anti-human fibronectin receptor antibody was added to the wells and the plates were incubated for an additional two hours, washed twice with TBS-Tween and then distilled water. Affinity-purified goat anti-rabbit IgG conjugated to horseradish peroxidase (100 μl) was then added to each well. Bonding reactions were incubated for 16 hours at room temperature. The following day, the plates were washed twice with TBS-Tween and then distilled water. […]

[2] = system: platelets stimulated with ADP; assay: ADP-stimulated platelet aggregation (aggregometer, platelet-rich plasma); conditions: read-out: ADP-Stimulated Aggregation (IC50), ADP 10 μm, 37° C.
Experimental: Briefly, the change in light transmission was measured through a stirred suspension of platelets in an aggregometer (Model 400 VS, Chrono-Log, Havertown, Pa., USA). […] In studies using thrombin, the PRP was gel-filtered on Sepharose 2B in divalent ion-free Tyrode's solution containing 2% BSA. For all studies, the reference standard was platelet-poor plasma, which was obtained by centrifuging PRP at 1000×g for 5 min.
All aggregation studies were performed at 37° C. with a constantly stirred suspension of 3×10^8 platelets/ml. (Platelet count was determined with the aid of a hemacytometer.) Peptides and stimulants were added to these suspensions in 1% dilutions. The PRP and gel-filtered platelets were used within three hours from the time of blood collection.
Peptide anti-aggregation potencies were determined from dose-responsive curves for the inhibition of the maximum aggregation responses stimulated by physiologic doses of ADP (10 μm) and thrombin (2 U/ml).

[3] = target: T2, vitronectin receptor (Vn-R) (Homo sapiens, UniProt P05106+P06756); assay: Liposome attachment assay for vitronectin receptor; conditions: purified receptor from human placenta, read-out: VnR Binding (IC50)
T2 construct: from tissue; host or cells: human placenta
T2 sequence (P06756 31-889 limits assumed): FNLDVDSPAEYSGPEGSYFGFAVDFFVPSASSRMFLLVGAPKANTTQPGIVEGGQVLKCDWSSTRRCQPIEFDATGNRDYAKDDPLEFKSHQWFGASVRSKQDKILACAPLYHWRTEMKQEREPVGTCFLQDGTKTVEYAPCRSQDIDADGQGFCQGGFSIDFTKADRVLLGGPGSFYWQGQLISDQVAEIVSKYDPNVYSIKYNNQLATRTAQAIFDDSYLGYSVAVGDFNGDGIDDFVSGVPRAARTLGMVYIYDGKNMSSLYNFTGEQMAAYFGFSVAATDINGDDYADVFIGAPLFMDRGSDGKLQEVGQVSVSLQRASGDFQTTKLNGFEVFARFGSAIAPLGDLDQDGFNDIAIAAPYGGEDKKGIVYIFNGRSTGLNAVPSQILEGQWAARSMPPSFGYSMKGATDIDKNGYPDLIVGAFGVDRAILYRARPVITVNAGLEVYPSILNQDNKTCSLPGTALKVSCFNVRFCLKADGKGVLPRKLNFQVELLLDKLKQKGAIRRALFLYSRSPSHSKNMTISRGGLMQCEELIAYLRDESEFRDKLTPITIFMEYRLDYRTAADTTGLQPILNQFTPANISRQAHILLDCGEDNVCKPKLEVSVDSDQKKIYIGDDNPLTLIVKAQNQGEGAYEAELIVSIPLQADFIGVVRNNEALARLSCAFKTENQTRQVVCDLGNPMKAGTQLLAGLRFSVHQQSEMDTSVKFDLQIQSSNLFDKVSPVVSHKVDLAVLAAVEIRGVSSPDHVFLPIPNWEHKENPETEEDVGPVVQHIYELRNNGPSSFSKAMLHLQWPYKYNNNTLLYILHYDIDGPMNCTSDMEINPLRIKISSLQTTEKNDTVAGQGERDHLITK
T2 sequence (P06756 891-1048 partner limits assumed): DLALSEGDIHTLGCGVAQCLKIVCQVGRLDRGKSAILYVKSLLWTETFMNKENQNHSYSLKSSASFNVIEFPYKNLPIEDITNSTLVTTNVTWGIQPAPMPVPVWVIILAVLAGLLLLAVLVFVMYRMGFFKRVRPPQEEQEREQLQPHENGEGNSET
T2 sequence (P05106 27-788): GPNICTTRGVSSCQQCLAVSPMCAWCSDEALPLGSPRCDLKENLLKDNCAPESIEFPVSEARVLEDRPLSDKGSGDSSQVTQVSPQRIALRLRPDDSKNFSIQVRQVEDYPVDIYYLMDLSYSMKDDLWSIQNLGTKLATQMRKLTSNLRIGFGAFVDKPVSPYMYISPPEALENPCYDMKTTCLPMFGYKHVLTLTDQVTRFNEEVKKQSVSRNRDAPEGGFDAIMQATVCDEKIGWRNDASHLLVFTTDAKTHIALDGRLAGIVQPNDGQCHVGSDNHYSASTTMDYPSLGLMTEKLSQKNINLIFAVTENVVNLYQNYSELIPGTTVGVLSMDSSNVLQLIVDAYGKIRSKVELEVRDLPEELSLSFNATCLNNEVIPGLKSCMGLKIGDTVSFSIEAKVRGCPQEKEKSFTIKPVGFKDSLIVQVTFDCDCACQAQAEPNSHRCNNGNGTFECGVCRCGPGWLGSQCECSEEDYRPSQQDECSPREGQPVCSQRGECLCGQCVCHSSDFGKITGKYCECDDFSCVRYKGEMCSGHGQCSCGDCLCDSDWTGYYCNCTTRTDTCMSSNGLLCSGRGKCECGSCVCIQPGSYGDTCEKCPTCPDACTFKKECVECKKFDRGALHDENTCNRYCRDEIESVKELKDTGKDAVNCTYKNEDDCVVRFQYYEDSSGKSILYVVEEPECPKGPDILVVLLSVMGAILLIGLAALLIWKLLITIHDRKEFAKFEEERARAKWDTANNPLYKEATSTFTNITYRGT
Experimental: Receptors were purified according to the procedures of Pytela et al. (Methods Enzymol. 144:475 (1987)), incorporated herein by reference. […] After extraction, the suspension was filtered over a Sepharose 6B column and then applied to a GRGDSPK column. Except where stated, all procedures were carried out at 4° C. The peptide column was washed with three volumes of Tris-buffered saline (TBS) containing 1 mM Ca^2+ and 25 mM OG and then with TBS containing 1 mM Ca^2+ and 25 mM octyl thioglucoside (OTG) at room temperature. […] Finally, Ca^2+ and Mg^+2 were added to eluted fractions to achieve final concentrations of 1 mM for both ions.
This assay was performed with minor modifications, according to the method of Pytela et al., Methods Enzymol. 144:475 (1987), incorporated herein by reference. […] An aliquot of the dialyzed sample was counted to assess radioactive content; the receptor-liposome mixture was then diluted to obtain a set radioactivity per unit volume. […]
(§1) In parallel studies with the platelet aggregation experiments (described in Example V), the apparent affinities of peptides for GP IIb/IIIa, fibronectin and vitronectin receptors were determined. […]
(§2) IC50 s for FnR were determined by ELISA (Example III). Those for VnR and GP IIb/IIIa were determined by liposome attachment assay (Example IV). […]

coronary thrombosis = assay: Electrically induced canine coronary thrombosis, time to full occlusion; assay type: in vivo, dog
Experimental: Male mongrel dogs weighing 14 to 20 kg were selected based on proper aggregation of their platelets in response to arachidonic acid, collagen, and adenosine disphosphate (ADP) and based on similar weights and hemodynamic properties.
Before surgery, the animals were anesthetized with sodium pentobarbital (30 mg/kg, i.v.) and then intubated and ventilated on room air with positive pressure using a respirator (Harvard Apparatus, S. Natick, Mass.) at a volume of 30 ml/kg and a frequency of 12 breaths/min. Surgery, performed under aseptic conditions, was begun with the placement of cannulae into the left carotid artery and jugular vein for monitoring arterial blood pressure (Statham P23 pressure transducer, Gould, Inc., Cardiovascular Products, Oxnard, Calif.) and administering intravenous fluids.
The heart was exposed via a left thoracotomy through the 5th intercostal space. A 2-cm segment of the left circumflex coronary artery (LCCA) was isolated from surrounding tissue by blunt dissection. […] The intra-coronary electrode was constructed by attaching a 25-gauge hypodermic needle tip to a 30-gauge Teflon-insulated silver-coated copper wire. The mechanical occluder was constructed of stainless steel in a C shape with a Teflon screw (2 mm diameter) on top. It was adjusted to control vessel circumference and decrease the reactive hyperemic flow due to a 10-sec (full) occlusion by 50-70% without affecting basal coronary blood flow (FIG. 1). A monopolar epicardial electrode was sutured to the surface of the ventricle in the region of LCCA distribution to monitor ischemic changes in the electrocardiogram (ECG). The left atrium was cannulated with polythylene tubing for administration of the peptide. Continuous recordings of blood pressure, limb lead II ECG, epicardial electrogram, and mean and phasic LCCA blood flow were obtained on a Model 7 polygraph (Grass Instrument Co., Quincy, Mass.).
One hour after the completion of surgery, a 100 micro-amp continuous anodal direct current delivered from a 9 volt nickel-cadmium battery was applied to the intimal surface of the LCCA. The anode of the battery was in series with a 250,000 ohm potentiometer and the intraluminal coronary artery electrode. The electric circuit was completed by placing the cathode in a subcutaneous site. Electrical stimulation was applied for three hours. At the conclusion of each experiment, the heart was fibrillated electrically and quickly removed, and the LCCA was dissected free as far as possible to verify the position of the implanted anodal electrode.
(§3) Animals were randomly assigned to two treatment groups: vehicle control (i.e., normal saline) or RGD peptides at various concentrations. Peptides were administered intra-atrially in both bolus and continuous injections. Each bolus injection consisted of 5 or 10 mg/kg and was administered 15 minutes before application of the current. A continuous infusion of the same peptide was then started immediately after completion of this initial injection. Animals that received a 5 mg/kg bolus also received a 5 mg/kg/hr infusion, whereas animals that received a 10 mg/kg bolus also received a 10 mg/kg/hr infusion. The anti-thrombotic effects of the peptides were monitored until 30 minutes after the occurrence of a persistent, occlusive thrombus or five hours after the initiation of electrical stimulation (whichever resulted first). If an occlusive thrombus had not developed within four hours after the initiation of current, the peptide infusion was stopped.
Coronary thrombosis was quantified as the time to full occlusion. The effects of the various peptide treatments on coronary thrombosis is illustrated in FIG. 4.

platelets [4] = assay: Ex vivo platelet aggregation after peptide injection in the canine coronary thrombosis model; parameters: species or system dog; conditions: for reduction of ex vivo aggregation relative to control levels: 3 mg/kg
Experimental: For all ex vivo studies (see FIG. 3), control aggregation values were standardized to the percentages of light transmission observed in PRP and PPP samples (0% and 100%, respectively).
as §3, with “Each bolus injection consisted of 5 or 10 mg/kg and was administered 15 minutes before application of the current.” left out
Platelet counts and ex vivo aggregation studies were performed one hour before and 1, 3, and 5 hours after application of anodal direct current.
Platelet aggregation was also determined ex vivo at one, three, and five hours after current application. For these studies, arachidonic acid, or collagen was again used to stimulate the platelets.

platelets [5] = assay: Ex vivo ADP-stimulated platelet aggregation in baboon PRP; conditions: animal 2; ADP 10 μm; 0, 1 and 2 hours
Experimental: At one- and two-hour time points, template bleeding times were measured, and blood samples were drawn to assess the hematology aggregation studies. Platelet aggregation studies were performed as described in Example V using ADP as the stimulus.
In addition, platelet aggregation studies were conducted on PRP derived from the second animal. Whole blood was drawn at three time points (0, 1 and 2 hours) of both control and experimental shunts.

GP IIb/IIIa = GP IIb/IIIa (Homo sapiens, UniProt P05106+P08514); assay: Liposome attachment assay for GP IIb/IIIa; conditions: read-out: IIb/IIIa Binding (IC50)
Chain of GP IIb/IIIa (P08514 32-887 limits assumed): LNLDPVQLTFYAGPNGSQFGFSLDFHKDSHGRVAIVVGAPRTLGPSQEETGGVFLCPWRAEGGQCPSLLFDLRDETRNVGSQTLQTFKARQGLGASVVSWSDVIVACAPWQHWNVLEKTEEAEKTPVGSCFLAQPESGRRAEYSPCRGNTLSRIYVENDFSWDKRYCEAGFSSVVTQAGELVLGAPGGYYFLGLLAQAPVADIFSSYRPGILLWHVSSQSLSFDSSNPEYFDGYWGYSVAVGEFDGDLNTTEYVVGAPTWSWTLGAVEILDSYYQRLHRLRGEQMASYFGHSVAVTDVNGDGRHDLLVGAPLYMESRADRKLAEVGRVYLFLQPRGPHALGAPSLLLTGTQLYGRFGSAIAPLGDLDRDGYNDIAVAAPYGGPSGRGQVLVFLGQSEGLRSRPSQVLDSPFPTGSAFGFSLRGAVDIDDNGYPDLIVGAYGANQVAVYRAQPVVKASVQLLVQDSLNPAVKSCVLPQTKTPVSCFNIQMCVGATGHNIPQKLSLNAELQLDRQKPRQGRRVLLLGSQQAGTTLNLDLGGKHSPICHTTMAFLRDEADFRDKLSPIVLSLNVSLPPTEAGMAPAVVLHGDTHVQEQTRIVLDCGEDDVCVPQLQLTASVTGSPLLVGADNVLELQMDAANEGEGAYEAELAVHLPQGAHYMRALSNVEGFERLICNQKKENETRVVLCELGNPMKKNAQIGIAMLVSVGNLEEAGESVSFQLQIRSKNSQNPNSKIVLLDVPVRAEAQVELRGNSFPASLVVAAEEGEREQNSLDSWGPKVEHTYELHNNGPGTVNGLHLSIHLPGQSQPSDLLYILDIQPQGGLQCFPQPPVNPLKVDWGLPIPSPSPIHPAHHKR
Chain of GP IIb/IIIa (P08514 891-1039 partner limits assumed): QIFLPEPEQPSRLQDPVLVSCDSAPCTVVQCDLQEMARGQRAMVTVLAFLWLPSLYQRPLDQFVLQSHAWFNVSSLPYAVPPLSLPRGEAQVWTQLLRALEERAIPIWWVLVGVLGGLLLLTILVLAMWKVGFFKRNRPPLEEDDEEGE
Chain of GP IIb/IIIa (P05106 27-788): as the sequence (P05106 27-788) above
Experimental: This assay was performed with minor modifications, according to the method of Pytela et al., Methods Enzymol. 144:475 (1987), incorporated herein by reference. Briefly, 1:4 mixture of labelled and unlabelled phosphatidylcholine (PC) liposomes was dissolved under nitrogen and diluted with an equal volume of purified receptor (purified as described in Example II) to achieve a fixed predetermined receptor-liposome concentration ratio. This mixture was then dialyzed overnight at 4° C. in phosphate buffered saline (PBS) containing 1 mM Ca^2+. An aliquot of the dialyzed sample was counted to assess radioactive content; the receptor-liposome mixture was then diluted to obtain a set radioactivity per unit volume.
Microtiter plates were coated with 10 μg of vitronectin. Non-specific sites were blocked for 2 hours at 37° C. in PBS containing 5 mg/ml BSA and 1 mM each of CaCl2 and MgCl2. The plates were then rinsed twice with PBS containing 1 mM Ca^+2 and Mg^+2, and 100 μl of the liposome-receptor mixture was added to each well. […]
as §1, §2

[6] = 10 mg/kg bolus + 10 mg/kg/hr, intra-atrial
[7] = 10 mg/kg, all three time points

FRGDSPDG
IC50 [1]: 0.12 µM

(t-but-am-Pam-Pmp)GHRGDLRPenA
IC50 [2]: 89 µM

GHRGDLRDASG
IC50 [3]: 36.8 µM

RPenGRGDWPCR
time to full occlusion (coronary thrombosis) (coronary thrombosis; 3 mg/kg): ineffective
time to full occlusion (coronary thrombosis) (coronary thrombosis; [6]): prevented occlusion
reduction of ex vivo aggregation relative to control levels (platelets [4]; one hour): 20-58%
reduction of ex vivo aggregation relative to control levels (platelets [4]; three and five hours, listed as 4R): 75-100% and 72-100%
ex vivo platelet responsiveness to all modes of stimulation (platelets [4]; 10 mg/kg, all time points): unresponsive

GPenGHRGDLRCA
time to full occlusion (coronary thrombosis) (coronary thrombosis; [6]): did not significantly influence
inhibition of ADP-stimulated ex vivo aggregation (platelets [4]; 10 mg/kg, 1, 3 and 5 h): substantially inhibited
inhibition of AA-stimulated ex vivo aggregation relative to control levels (platelets [4]; [7]): 43-70%
inhibition of collagen-stimulated ex vivo aggregation relative to control levels (platelets [4]; [7]): 12-50%
ex vivo platelet responsiveness to ADP (platelets [5]): completely unresponsive

RPenGHRGDWRCR
thrombus formation in animals whose circulating platelet levels were one-third of normal (coronary thrombosis; 5 mg/kg): able to prevent thrombus formation
time to full occlusion (coronary thrombosis) (coronary thrombosis; 5 mg/kg bolus + 5 mg/kg/hr, intra-atrial): significantly prolonged
time to full occlusion (coronary thrombosis) (coronary thrombosis; [6]): completely prevented occlusion
blockade of all ex vivo aggregation responses (platelets [4]; 5 mg/kg): completely or near-maximally blocked
inhibition of ex vivo platelet activation by collagen (platelets [4]; 5 mg/kg): near-maximal inhibition
platelet responsiveness ex vivo to ADP and AA (platelets [4]; 5 mg/kg, all three time points): completely unresponsive

GPGRGDSPCA
IC50 (GP IIb/IIIa): 20 µM

GRGDSPDG
IC50 [1]: 0.005 µM
